Experimental findings from patent US9181258B2, “Substituted 3,4-dihydropyrrolo[1,2-a]pyrazin-1(2H)-ones as protein kinase inhibitors” (NERVIANO MEDICAL SCIENCES S.R.L., priority 2011, dated 2015) are described below.

One experiment concerns the target human PIM1 (Homo sapiens (Human), UniProt P11309). Nature of the experiment: Biochemical assay for inhibitors of PIM1 kinase activity (trans-phosphorylation, Dowex technique). The following applies: ATP 200 μM, Aktide 25 μM, enzyme 1 nM; read-out: PIM-1 IC50. A digest of the protocol: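 Full-length human PIM1 (1 nM) phosphorylates Aktide (25 μM) with 200 μM ATP plus 6 nM ^33P-γ-ATP in HEPES 50 mM pH 7.5, 10 mM MgCl2, 1 mM DTT, 3 μM NaVO3, 0.2 mg/mL BSA. Unreacted ATP captured on Dowex resin, supernatant β-counted; IC50 from ten-point 1:3 dilution sigmoidal fit.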

A further experiment deals with human PIM2 (Homo sapiens (Human), UniProt Q9P1W9). Nature of the experiment: PIM2 kinase inhibition assay: Dowex technique. It is filed as biochemical. The following applies: ATP 4 μM, Aktide 5 μM, enzyme 1.5 nM; read-out: PIM-2 IC50. A digest of the protocol:
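Full-length human PIM2 (1.5 nM) phosphorylated Aktide (5 μM) with 4 μM ATP plus 1 nM 33P-γ-ATP (final concentrations). Buffer: 50 mM HEPES pH 7.5, 1 mM MgCl2, 1 mM DTT, 3 μM Na3VO4, 0.2 mg/mL BSA. Radiolabel incorporation was read by the robotized Dowex method used for PIM1.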

A further experiment relates to BaF3-PIM1 cells. Nature of the experiment: In vitro cell proliferation assay (CellTiter-Glo), BaF3-PIM1. It is filed as cell-based. The note with it: 72 hours. On the technique in general: ATP-based viability assays read luminescence as a measure of living cells.
The test system of another experiment is MV-4-11 cells. Nature of the experiment: In vitro cell proliferation assay (CellTiter-Glo), MV-4-11. It is filed as cell-based. How it is done:
In Vitro Cell Proliferation Assay
MV-4-11 (biphenotypic B myelomonocytic leukemia) cell line was obtained from ATCC.
Media for MV-4-11 cell line contained RPMI 1640 or EMEM plus 2 mM Glutamine and 10% Fetal bovine serum.
BaF3-PIM1 and MV-4-11 cells were seeded at 125 cells/well and 1250 cells/well respectively in a 384-well white plates in complete medium and treated with compounds dissolved in 0.1% DMSO, 24 h after seeding.
The cells were incubated at 37° C. and 5% CO2 and after 72 hours the plates were processed using CellTiter-Glo assay (Promega) following the manufacturer's instruction.
CellTiter-Glo was a homogenous method based on the quantification of the ATP present, an indicator of metabolitically active cells. ATP was quantified using a system based on luciferase and D-luciferin resulting into light generation. The luminescent signal was proportional to the number of cells present in culture.
Briefly 25 μl/well reagent solution were added to each wells and after 5 minutes shacking microplates were red by Envision (PerkinElmer) luminometer. The luminescent signal was proportional to the number of cells present in culture.
Inhibitory activity was evaluated comparing treated versus control data using Assay Explorer (MDL) program. IC50 was calculated using sigmoidal interpolation curve.

Each structure is given as a SMILES string. Where a name gives a salt, the structure may show the parent alone. Read-outs that look alike come from different tables or passages of the source.

Chain of human PIM1 (P11309 whole entry): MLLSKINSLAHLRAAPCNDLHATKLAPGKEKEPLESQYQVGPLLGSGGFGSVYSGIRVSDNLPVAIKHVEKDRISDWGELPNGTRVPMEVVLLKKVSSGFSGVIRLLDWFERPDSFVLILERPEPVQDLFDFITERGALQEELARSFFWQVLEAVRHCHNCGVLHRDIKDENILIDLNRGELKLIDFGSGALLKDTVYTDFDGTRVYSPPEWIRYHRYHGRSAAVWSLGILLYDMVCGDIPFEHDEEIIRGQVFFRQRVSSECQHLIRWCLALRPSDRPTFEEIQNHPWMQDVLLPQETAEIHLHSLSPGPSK
Chain of human PIM2 (Q9P1W9 whole entry): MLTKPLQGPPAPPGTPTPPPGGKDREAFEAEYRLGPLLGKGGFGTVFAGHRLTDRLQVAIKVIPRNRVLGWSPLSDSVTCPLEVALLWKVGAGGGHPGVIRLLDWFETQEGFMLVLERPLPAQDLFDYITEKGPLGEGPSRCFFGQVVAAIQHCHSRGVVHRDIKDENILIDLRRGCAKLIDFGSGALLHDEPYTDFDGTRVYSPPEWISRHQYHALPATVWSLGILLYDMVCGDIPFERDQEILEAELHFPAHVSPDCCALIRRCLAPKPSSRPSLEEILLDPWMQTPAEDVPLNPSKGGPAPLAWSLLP

With `NCCC[C@H]1CNC(=O)c2cc(-c3cccc(OC(F)(F)F)c3)c(-c3ccccc3)n21` [Compound 102, (4S)-4-(3-aminopropyl)-6-phenyl-7-[3-(trifluoromethoxy)phenyl]-3,4-dihydropyrrolo[1,2-a]pyrazin-1(2H)-one hydrochloride], the IC50 (as a rule, the concentration at which inhibition is half-maximal) was determined as 0.019 µM on human PIM1; 0.156 µM on human PIM2; 0.836 µM with BaF3-PIM1 cells; 1.64 µM in the experiment with MV-4-11 cells (Homo sapiens, MV4-11, 72 hours).

As for `NCCC[C@H]1CNC(=O)c2cc(-c3cccc(OC(F)(F)F)c3)c(-c3ccsc3)n21` [Compound 103, (4S)-4-(3-aminopropyl)-6-(thiophen-3-yl)-7-[3-(trifluoromethoxy)phenyl]-3,4-dihydropyrrolo[1,2-a]pyrazin-1(2H)-one hydrochloride], the IC50 on human PIM1 was 0.011 µM; on human PIM2, 0.153 µM; in the experiment on BaF3-PIM1 cells, 1.18 µM; in the experiment on MV-4-11 cells (Homo sapiens, MV4-11, 72 hours), 2.93 µM.

For `CC(=O)c1ccc(-c2c(-c3cccc(OC(F)(F)F)c3)cc3n2[C@@H](CCCN)CNC3=O)cc1` [Compound 110, (4S)-6-(4-acetylphenyl)-4-(3-aminopropyl)-7-[3-(trifluoromethoxy)phenyl]-3,4-dihydropyrrolo[1,2-a]pyrazin-1(2H)-one hydrochloride], the IC50 at human PIM1 turned out to be 0.022 µM; on human PIM2, 0.129 µM; in the experiment on BaF3-PIM1 cells, 3.9 µM; in the experiment on MV-4-11 cells (Homo sapiens, MV4-11, 72 hours), 3.2 µM.

As for `NCC[C@H]1CNC(=O)c2cc(-c3cccc(OC(F)(F)F)c3)c(-c3ccc4c(c3)OCO4)n21` [Compound 112, (4S)-4-(2-aminoethyl)-6-(1,3-benzodioxol-5-yl)-7-[3-(trifluoromethoxy)phenyl]-3,4-dihydropyrrolo[1,2-a]pyrazin-1(2H)-one hydrochloride], the IC50 turned out to be 0.006 µM at human PIM1; 0.016 µM at human PIM2; 0.071 µM with BaF3-PIM1 cells; 1.77 µM with MV-4-11 cells (Homo sapiens, MV4-11, 72 hours).

As for `CN(C)c1ccc(-c2c(-c3cccc(OC(F)(F)F)c3)cc3n2[C@@H](CCN)CNC3=O)cc1` [Compound 115, (4S)-4-(2-aminoethyl)-6-[4-(dimethylamino)phenyl]-7-[3-(trifluoromethoxy)phenyl]-3,4-dihydropyrrolo[1,2-a]pyrazin-1(2H)-one hydrochloride], the IC50 worked out at 0.003 µM on human PIM1; 0.046 µM on human PIM2; 0.076 µM in the experiment on BaF3-PIM1 cells; 0.812 µM with MV-4-11 cells (Homo sapiens, MV4-11, 72 hours).

For the compound `COc1ccc(-c2c(-c3cccc(OC(F)(F)F)c3)cc3n2[C@@H](CCN)CNC3=O)cc1` [Compound 116, (4S)-4-(2-aminoethyl)-6-(4-methoxyphenyl)-7-[3-(trifluoromethoxy)phenyl]-3,4-dihydropyrrolo[1,2-a]pyrazin-1(2H)-one hydrochloride], the IC50 on human PIM1 amounted to 0.003 µM; on human PIM2, 0.022 µM; in the experiment on BaF3-PIM1 cells, 0.142 µM; with MV-4-11 cells (Homo sapiens, MV4-11, 72 hours) it was 0.861 µM.

Take `NCC[C@H]1CNC(=O)c2cc(-c3cccc(OC(F)(F)F)c3)c(-c3ccc4ccccc4c3)n21` [Compound 118, (4S)-4-(2-aminoethyl)-6-(naphthalen-2-yl)-7-[3-(trifluoromethoxy)phenyl]-3,4-dihydropyrrolo[1,2-a]pyrazin-1(2H)-one hydrochloride]: the IC50 on human PIM1 was 0.027 µM; on human PIM2, 0.152 µM; in the experiment on BaF3-PIM1 cells, 0.31 µM; with MV-4-11 cells (Homo sapiens, MV4-11, 72 hours), 0.76 µM.

Take `NCC[C@H]1CNC(=O)c2cc(-c3cccc(OC(F)(F)F)c3)c(-c3ccc(S(N)(=O)=O)cc3)n21` [Compound 120, 4-{(4S)-4-(2-aminoethyl)-1-oxo-7-[3-(trifluoromethoxy)phenyl]-1,2,3,4-tetrahydropyrrolo[1,2-a]pyrazin-6-yl}benzenesulfonamide hydrochloride]: the IC50 on human PIM1 was determined as 0.001 µM; at human PIM2, 0.003 µM; in the experiment on BaF3-PIM1 cells, 1.36 µM; in the experiment on MV-4-11 cells (Homo sapiens, MV4-11, 72 hours), 5.35 µM.

For `NCC[C@H]1CNC(=O)c2cc(-c3cccc(OC(F)(F)F)c3)c(-c3cccc(F)c3)n21` [Compound 121, (4S)-4-(2-aminoethyl)-6-(3-fluorophenyl)-7-[3-(trifluoromethoxy)phenyl]-3,4-dihydropyrrolo[1,2-a]pyrazin-1(2H)-one hydrochloride], the IC50 at human PIM1 was 0.003 µM; on human PIM2, 0.012 µM; in the experiment with BaF3-PIM1 cells it was 0.086 µM; with MV-4-11 cells (Homo sapiens, MV4-11, 72 hours) it was 0.66 µM.

For `Cc1cc(-c2c(-c3cccc(OC(F)(F)F)c3)cc3n2[C@@H](CCN)CNC3=O)ccc1F` [Compound 122, (4S)-4-(2-aminoethyl)-6-(4-fluoro-3-methylphenyl)-7-[3-(trifluoromethoxy)phenyl]-3,4-dihydropyrrolo[1,2-a]pyrazin-1(2H)-one hydrochloride], the IC50 at human PIM1 turned out to be 0.017 µM; at human PIM2, 0.086 µM; with BaF3-PIM1 cells, 0.165 µM; in the experiment on MV-4-11 cells (Homo sapiens, MV4-11, 72 hours), 0.776 µM.

With `CSc1ccc(-c2c(-c3cccc(OC(F)(F)F)c3)cc3n2[C@@H](CCN)CNC3=O)cc1` [Compound 123, (4S)-4-(2-aminoethyl)-6-[4-(methylsulfanyl)phenyl]-7-[3-(trifluoromethoxy)phenyl]-3,4-dihydropyrrolo[1,2-a]pyrazin-1(2H)-one hydrochloride], the IC50 at human PIM1 turned out to be 0.016 µM; on human PIM2, 0.045 µM; with BaF3-PIM1 cells, 0.089 µM; in the experiment with MV-4-11 cells (Homo sapiens, MV4-11, 72 hours), 0.73 µM.

In the case of `CC(C)(C)c1ccc(-c2c(-c3cccc(OC(F)(F)F)c3)cc3n2[C@@H](CCN)CNC3=O)cc1` [Compound 124, (4S)-4-(2-aminoethyl)-6-(4-tert-butylphenyl)-7-[3-(trifluoromethoxy)phenyl]-3,4-dihydropyrrolo[1,2-a]pyrazin-1(2H)-one hydrochloride], the IC50 turned out to be 0.024 µM on human PIM1; 0.16 µM at human PIM2; 0.13 µM in the experiment on BaF3-PIM1 cells; 0.468 µM in the experiment on MV-4-11 cells (Homo sapiens, MV4-11, 72 hours).

Turning to `NCC[C@H]1CNC(=O)c2cc(-c3cccc(OC(F)(F)F)c3)c(-c3cccc(C(F)(F)F)c3)n21` [Compound 125, (4S)-4-(2-aminoethyl)-7-[3-(trifluoromethoxy)phenyl]-6-[3-(trifluoromethyl)phenyl]-3,4-dihydropyrrolo[1,2-a]pyrazin-1(2H)-one hydrochloride], the IC50 on human PIM1 is 0.044 µM; at human PIM2 it was 0.097 µM; in the experiment with BaF3-PIM1 cells, 0.304 µM; with MV-4-11 cells (Homo sapiens, MV4-11, 72 hours), 0.94 µM.

As for `NCC[C@H]1CNC(=O)c2cc(-c3cccc(OC(F)(F)F)c3)c(-c3cccc(Cl)c3)n21` [Compound 126, (4S)-4-(2-aminoethyl)-6-(3-chlorophenyl)-7-[3-(trifluoromethoxy)phenyl]-3,4-dihydropyrrolo[1,2-a]pyrazin-1(2H)-one hydrochloride], the IC50 on human PIM1 came to 0.013 µM; on human PIM2 it was 0.021 µM; in the experiment on BaF3-PIM1 cells it was 0.125 µM; with MV-4-11 cells (Homo sapiens, MV4-11, 72 hours) it was 0.776 µM.

For `CCOc1ccc(-c2c(-c3cccc(OC(F)(F)F)c3)cc3n2[C@@H](CCN)CNC3=O)cc1F` [Compound 127, (4S)-4-(2-aminoethyl)-6-(4-ethoxy-3-fluorophenyl)-7-[3-(trifluoromethoxy)phenyl]-3,4-dihydropyrrolo[1,2-a]pyrazin-1(2H)-one hydrochloride], the IC50 at human PIM1 is 0.012 µM; at human PIM2 it was 0.024 µM; with BaF3-PIM1 cells, 0.125 µM; in the experiment on MV-4-11 cells (Homo sapiens, MV4-11, 72 hours) it was 0.433 µM.

With `COc1c(C)cc(-c2c(-c3cccc(OC(F)(F)F)c3)cc3n2[C@@H](CCN)CNC3=O)cc1C` [Compound 128, 4S)-4-(2-aminoethyl)-6-(4-methoxy-3,5-dimethyl phenyl)-7-[3-(trifluoromethoxy)phenyl]-3,4-dihydropyrrolo[1,2-a]pyrazin-1(2H)-one hydrochloride], the IC50 on human PIM1 stood at 0.008 µM; at human PIM2, 0.032 µM; in the experiment with BaF3-PIM1 cells, 0.175 µM; with MV-4-11 cells (72 hours, read-out: MV4-11 IC50), 0.47 µM.

On to `COc1ccc(-c2c(-c3cccc(OC(F)(F)F)c3)cc3n2[C@@H](CCN)CNC3=O)cc1Cl` [Compound 129, (4S)-4-(2-aminoethyl)-6-(3-chloro-4-methoxyphenyl)-7-[3-(trifluoromethoxy)phenyl]-3,4-dihydropyrrolo[1,2-a]pyrazin-1(2H)-one hydrochloride], for which the IC50 on human PIM1 amounted to 0.003 µM; at human PIM2, 0.012 µM; in the experiment on BaF3-PIM1 cells it was 0.198 µM; in the experiment with MV-4-11 cells (Homo sapiens, MV4-11, 72 hours) it was 0.71 µM.

With `CN(C)Cc1ccc(-c2c(-c3cccc(OC(F)(F)F)c3)cc3n2[C@@H](CCCN)CNC3=O)cc1` [Compound 134, (4S)-4-(3-aminopropyl)-6-{4-[(dimethylamino)methyl]phenyl}-7-[3-(trifluoromethoxy)phenyl]-3,4-dihydropyrrolo[1,2-a]pyrazin-1(2H)-one dihydrochloride], the 50% inhibitory concentration (IC50) was found to be 0.002 µM at human PIM1; 0.066 µM on human PIM2; 4.33 µM in the experiment on BaF3-PIM1 cells; 7.05 µM with MV-4-11 cells (Homo sapiens, MV4-11, 72 hours).
